ChEMBL document CHEMBL1136163, “Conformationally-restricted analogues of efflux pump inhibitors that potentiate the activity of levofloxacin in Pseudomonas aeruginosa” (Bioorg Med Chem Lett, 2003)
In brackets after ≈: the same amount, converted by molar mass. Where a SMILES comes first, the peptide text is derived from it. The star is where a group is joined. βNA = c1ccc2cc(N*)ccc2c1

System: not listed separately
Experiment: In vivo toxicity in mice i.v.
Assay type: organism-based
Conditions: mouse, iv

Compound	LD50
NCCC[C@@H](N)C(=O)N[C@H](CCc1ccccc1)C(=O)Nc1cnc2ccccc2c1	< 25 mg/kg
C[C@H]1COc2c(N3CCN(C)CC3)c(F)cc3c(=O)c(C(=O)O)cn1c23.C[C@H]1COc2c(N3CCN(C)CC3)c(F)cc3c(=O)c(C(=O)O)cn1c23.O [LEVOFLOXACIN]	> 100 mg/kg
N=C(N)NCCC[C@H](NC(=O)[C@@H](N)Cc1ccccc1)C(=O)Nc1ccc2ccccc2c1 [PABETAN] (H-Phe-Arg-βNA)	< 25 mg/kg

System: not listed separately
Experiment: In vivo minimum lethal dose causing lethality to >/=66% of the mice tested i.p.
Assay type: ADME, organism-based
Conditions: mouse, ip

Compound	MLD
NCCC[C@@H](N)C(=O)N[C@H](CCc1ccccc1)C(=O)Nc1cnc2ccccc2c1	200 mg/kg
CC(C)C[C@@H](NC(=O)[C@H](N)CCCN)C(=O)Nc1cnc2ccccc2c1	300 mg/kg

System: not listed separately
Experiment: In vivo minimum lethal dose causing lethality to >/=66% of the mice tested i.v.
Assay type: ADME, organism-based
Conditions: mouse, iv

Compound	MLD
NC[C@@H]1CN[C@@H](C(=O)N[C@H](CCc2ccccc2)C(=O)Nc2cnc3ccccc3c2)C1	50 mg/kg
NCCC[C@@H](N)C(=O)N[C@H](CCc1ccccc1)C(=O)Nc1cnc2ccccc2c1	< 25 mg/kg
CN(C(=O)[C@@H](N)CCc1ccccc1)[C@@H](CCCN)CSc1nc2ccccc2s1	25 mg/kg
CC(C)(C)c1ccc2ncc(NC(=O)[C@H]3C[C@H](CN)CN3)cc2c1	> 150 mg/kg
NC[C@@H]1CN[C@@H](C(=O)N[C@H](CCc2ccccc2)C(=O)Nc2ccc3ncccc3c2)C1	> 100 mg/kg
NCCO[C@H]1CN[C@H](C(=O)N[C@H](CCc2ccccc2)C(=O)Nc2cnc3ccccc3c2)C1	70 mg/kg
C[C@H](N)C(=O)N[C@H](CCc1ccccc1)C(=O)Nc1cnc2ccccc2c1	125 mg/kg
CN(C(=O)[C@@H](N)Cc1ccccc1)[C@@H](CCCN)C(=O)Nc1ccc2ccccc2c1	< 25 mg/kg
CC(C)C[C@@H](NC(=O)[C@H](N)CCCN)C(=O)Nc1cnc2ccccc2c1	50 mg/kg
CC(C)(C)c1ccc2ncc(NC(=O)CNC(=O)[C@H](N)CCCN)cc2c1	35 mg/kg
C[C@H]1COc2c(N3CCN(C)CC3)c(F)cc3c(=O)c(C(=O)O)cn1c23.C[C@H]1COc2c(N3CCN(C)CC3)c(F)cc3c(=O)c(C(=O)O)cn1c23.O [LEVOFLOXACIN]	> 100 mg/kg
N=C(N)NCCC[C@H](NC(=O)[C@@H](N)Cc1ccccc1)C(=O)Nc1ccc2ccccc2c1 [PABETAN] (H-Phe-Arg-βNA)	< 25 mg/kg

System: not listed separately
Experiment: Clearance measured in rat
Assay type: ADME, organism-based
Conditions: in vivo, read-out: CLfree (converted)

Compound	clearance
NCCC[C@@H](N)C(=O)N[C@H](CCc1ccccc1)C(=O)Nc1cnc2ccccc2c1	28.3 mL/min/kg
NC[C@@H]1CN[C@@H](C(=O)N[C@H](CCc2ccccc2)C(=O)Nc2ccc3ncccc3c2)C1	48.3 mL/min/kg

System: Pseudomonas aeruginosa
Experiment: In vitro minimum concentration of the efflux pump inhibitor required to inhibit the growth of PAM 1723 a strain of Pseudomonas aeruginosa
Assay type: functional
Conditions: not given

Compound	MIC
NC[C@@H]1CN[C@@H](C(=O)N[C@H](CCc2ccccc2)C(=O)Nc2cnc3ccccc3c2)C1	> 512 µg/mL
NCCC[C@@H](N)C(=O)N[C@H](CCc1ccccc1)C(=O)Nc1cnc2ccccc2c1	> 512 µg/mL
CN(C(=O)[C@@H](N)CCc1ccccc1)[C@@H](CCCN)CSc1nc2ccccc2s1	128 µg/mL (≈ 289 µM)
CC(C)(C)c1ccc2ncc(NC(=O)[C@H]3C[C@H](CN)CN3)cc2c1	128 µg/mL (≈ 392 µM)
NC[C@@H]1CN[C@@H](C(=O)N[C@H](CCc2ccccc2)C(=O)Nc2ccc3ncccc3c2)C1	> 512 µg/mL
NCCO[C@H]1CN[C@H](C(=O)N[C@H](CCc2ccccc2)C(=O)Nc2cnc3ccccc3c2)C1	> 512 µg/mL
CN(C(=O)[C@@H](N)Cc1ccccc1)[C@@H](CCCN)C(=O)Nc1ccc2ccccc2c1	256 µg/mL (≈ 612 µM)
CC(C)(C)c1ccc2ncc(NC(=O)CNC(=O)[C@H](N)CCCN)cc2c1	64 µg/mL (≈ 172 µM)
N=C(N)NCCC[C@H](NC(=O)[C@@H](N)Cc1ccccc1)C(=O)Nc1ccc2ccccc2c1 [PABETAN] (H-Phe-Arg-βNA)	> 512 µg/mL

System: Pseudomonas aeruginosa
Experiment: In vitro minimum concentration of the efflux pump inhibitor required to reduce (potentiate) the MIC of fuoroquinolone levofloxacin 8-fold (LVFX)
Assay type: functional
Conditions: not given

Compound	MPC
NC[C@@H]1CN[C@@H](C(=O)N[C@H](CCc2ccccc2)C(=O)Nc2cnc3ccccc3c2)C1	5 µg/mL
NCCC[C@@H](N)C(=O)N[C@H](CCc1ccccc1)C(=O)Nc1cnc2ccccc2c1	10 µg/mL
CN(C(=O)[C@@H](N)CCc1ccccc1)[C@@H](CCCN)CSc1nc2ccccc2s1	5 µg/mL
CC(C)(C)c1ccc2ncc(NC(=O)[C@H]3C[C@H](CN)CN3)cc2c1	5 µg/mL
NC[C@@H]1CN[C@@H](C(=O)N[C@H](CCc2ccccc2)C(=O)Nc2ccc3ncccc3c2)C1	10 µg/mL
NCCO[C@H]1CN[C@H](C(=O)N[C@H](CCc2ccccc2)C(=O)Nc2cnc3ccccc3c2)C1	10 µg/mL
C[C@H](N)C(=O)N[C@H](CCc1ccccc1)C(=O)Nc1cnc2ccccc2c1	>40 µg/mL
CN(C(=O)[C@@H](N)Cc1ccccc1)[C@@H](CCCN)C(=O)Nc1ccc2ccccc2c1	5 µg/mL
CC(C)C[C@@H](NC(=O)[C@H](N)CCCN)C(=O)Nc1cnc2ccccc2c1	20 µg/mL
CC(C)(C)c1ccc2ncc(NC(=O)CNC(=O)[C@H](N)CCCN)cc2c1	5 µg/mL
N=C(N)NCCC[C@H](NC(=O)[C@@H](N)Cc1ccccc1)C(=O)Nc1ccc2ccccc2c1 [PABETAN] (H-Phe-Arg-βNA)	10 µg/mL
